Reference: US12215111B2, “Imidazopyridazine IL-17 inhibitor compounds” (Janssen Pharmaceutica NV, priority 2021, dated 2025)

Assays:
[1] = target: T1, IL-17A(FLAG-Tagged): IL-17RA(His-Tagged) (Homo sapiens, UniProt Q16552, K93Q); assay: IL-17A(FLAG-tagged):IL-17RA(His-tagged) binding disruption Eu-HTRF assay, Protocol 2; conditions: FLAG tagged IL-17A at 2× final concentration (1 nM); simple average if tested more than once
Excerpt: (§1) IL-17A(FLAG-Tagged): IL-17RA(His-Tagged) Binding Disruption Eu-HTRF Assay
(§2) An antibody directed against the FLAG tag of IL-17A (SEQ ID NO:1) is labeled with the HTRF donor chromophore (Europium-cryptate). IL-17A is present as a dimer that is “locked into” this quaternary structure due to the formation of loop-spanning […] disulfide bridges. The construct of IL-17RA used in the assay excludes the outer-membrane portion of the receptor and is fused to a C-terminal 10×His tag (SEQ ID NO:2). An antibody directed against the His tag of the IL-17RA chimera is labeled with the HTRF acceptor chromophore (“D2”). The fluorescence-resonance energy transfer (FRET) depends on the vicinity of the donor chromophore to the acceptor, and interruption of the binding between the IL-17A and IL-17RA causes the reduction/loss of FRET. Therefore, this assay allows to evaluate the compound effect on the binding IL-17A and IL-17RA by monitoring the fluorescence intensity of donor vs acceptor. The assay was run using either Protocol 1 or Protocol 2 described below.
(§3) Protocol 2. 40 nl of 2-fold serial diluted compound solution for total 22 dilution points is added into each well of a 1536-well, white, low-volume, non-binding plate (Greiner #782904), then 2 μl of FLAG tagged IL-17A at 2× final concentration (1 nM) in solution of PBS+0.01% Triton-X100 is added to each well. The assay plate is briefly centrifuged then incubated for 1 h at rt. A mixed solution is prepared containing 2×5 nM 10HIS×IL-17RA, 2×2.5 nM Eu-anti-FLAG (CISBIO), 2×5 nM D2-anti-HIS (CISBIO) in PBS+0.01% Triton-X100+200 mM Potassium Fluoride (Sigma 60238) and […] of mix is added to each well of the assay plate. The plate is briefly centrifuged then incubated for 2 h at rt. The HTRF intensities at the wavelength of donor (615 nm) and acceptor (665 nm) are measured using BMG Pherastar. The ratio between intensities at two wavelengths is calculated and plotted against the compound concentration and the data is fitted to a one-site competition model to yield IC50 of the compound.

[2] = system: IL-17A-induced G-CSF production in human normal keratinocyte (NHK); assay: NHK assay: IL-17A-induced G-CSF production in normal human keratinocytes; type: cell-based; conditions: Homo sapiens, Keratinocyte; IL-17A 5 ng/mL, 24 h at 37° C., G-CSF by HTRF; simple average if tested more than once
Procedure: IL-17A acts directly on keratinocytes through binding to dimeric receptor IL-17RA/RC and drives the production of a number of inflammatory mediators known to be elevated in psoriasis lesional tissue. IL-17A small molecule inhibitors that block the IL-17A to interact with IL-17R would inhibit the IL-17A signaling in its targeted cells such as keratinocytes. The compound functional activity is evaluated for its impact on IL-17A-induced G-CSF production in human normal keratinocyte (NHK).
Adult normal human keratinocytes are cultured in keratinocyte growth medium (Lonza) in a flask till reaching ˜90% confluence, then cells are transferred to a 384-well plate at density of 3000-4000 cell/well. Recombinant human IL-17A (Gibco PHC9174) is pre-incubated with titrated compound or DMSO for 1 h at rt then added to the cell culture plate. The final concentration of IL-17A is 5 ng/mL and DMSO is 0.2%, in the culture containing 5% FBS. Cells are cultured/treated for 24 h at 37° C. Supernatants are collected and G-CSF production is measured through HTRF technology using Human G-CSF Kit (CisBio). G-CSF concentration was extrapolated from the standard curve and IC50 is determined using GraphPad Prism. Cell viability is also evaluated using CellTiter-Glo kit (Promega) and effect of compound on cell viability is compared to DMSO control.

[3] = target: T1, IL-17A(FLAG-Tagged): IL-17RA(His-Tagged); assay: IL-17A(FLAG-tagged):IL-17RA(His-tagged) binding disruption Eu-HTRF assay, Protocol 1; conditions: FLAG tagged IL-17A at 2× final concentration (2.5 nM); simple average if tested more than once
Excerpt: as §1, §2
as §3, with “Protocol 1:” for “Protocol 2.”, “40 nL” for “40 nl”, “concentration (2.5” for “concentration (1”, “donor (620” for “donor (615”

T1 sequence (Q16552 with tags, fused parts or gaps K93Q): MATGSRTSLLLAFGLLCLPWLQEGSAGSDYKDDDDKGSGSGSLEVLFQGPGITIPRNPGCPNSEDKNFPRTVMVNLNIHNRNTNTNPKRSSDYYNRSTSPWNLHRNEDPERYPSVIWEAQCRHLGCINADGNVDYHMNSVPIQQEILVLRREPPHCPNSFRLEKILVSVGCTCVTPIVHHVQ

SMILES	IC50 [1]	IC50 [2]	IC50 [3]
COCCC(c1cnn2cc([C@@H](NC(=O)c3nonc3OC)C3CCC(F)(F)CC3)nc2c1)N1C[C@@H](C(F)(F)F)NC1=O (single isomer, unassigned) [Example 42, N—((S)—(4,4-Difluorocyclohexyl)(7-((R*)-3-methoxy-1-((S)-2-oxo-4-(trifluoromethyl)imidazolidin-1-yl)propyl)imidazo[1,2-b]pyridazin-2-yl)methyl)-4-methoxy-1,2,5-oxadiazole-3-carboxamide]	< 4 µM	< 4 µM	–
COCC(c1cnn2cc([C@H](COC(C)(C)C(F)(F)F)NC(=O)c3nonc3C)nc2c1)N1C[C@@](C)(C(F)(F)F)NC1=O (stereo partly drawn) [Example 23]	< 4 µM	< 4 µM	–
CC(C)n1nccc1C(=O)N[C@H](c1cn2ncc(CN3CC4(CC(F)(F)C4)NC3=O)cc2n1)C1CCC(F)(F)CC1 [Example 46, (S)—N-((7-((2,2-Difluoro-6-oxo-5,7-diazaspiro[3.4]octan-7-yl)methyl)imidazo[1,2-b]pyridazin-2-yl)(4,4-difluorocyclohexyl)methyl)-1-isopropyl-1H-pyrazole-5-carboxamide]	< 4 µM	4 to 10 µM	–
COC[C@H](c1cnn2cc([C@@H](NC(=O)c3nonc3C)C3CCC(F)(F)CC3)nc2c1)N1C[C@@H](C(F)F)NC1=O [Example 26, N—((S)—(4,4-Difluorocyclohexyl)(7-((S)-1-((S)-4-(difluoromethyl)-2-oxoimidazolidin-1-yl)-2-methoxyethyl)imidazo[1,2-b]pyridazin-2-yl)methyl)-4-methyl-1,2,5-oxadiazole-3-carboxamide]	< 4 µM	< 4 µM	–
COCC[C@H](c1cnn2cc([C@@H](NC(=O)c3nonc3C3CC3)C3CCC(F)(F)CC3)nc2c1)N1C[C@@H](C(F)(F)F)NC1=O [Example 41, 4-Cyclopropyl-N—((S)—(4,4-difluorocyclohexyl)(7-((R)-3-methoxy-1-((S)-2-oxo-4-(trifluoromethyl)imidazolidin-1-yl)propyl)imidazo[1,2-b]pyridazin-2-yl)methyl)-1,2,5-oxadiazole-3-carboxamide]	< 4 µM	< 4 µM	–
COC[C@H](c1cnn2cc([C@H](CCC(C)(C)C(F)(F)F)NC(=O)c3nonc3C)nc2c1)N1C[C@@](C)(C(F)(F)F)NC1=O (single isomer, unassigned) [Example 31]	< 4 µM	< 4 µM	–
Cc1nonc1C(=O)N[C@@H](CCC(C)(C)C(F)(F)F)c1cn2ncc(CN3C[C@@](C)(C(F)(F)F)NC3=O)cc2n1 [Example 48, 4-Methyl-N—((S)-5,5,5-trifluoro-4,4-dimethyl-1-(7-(((S)-4-methyl-2-oxo-4-(trifluoromethyl)imidazolidin-1-yl)methyl)imidazo[1,2-b]pyridazin-2-yl)pentyl)-1,2,5-oxadiazole-3-carboxamide]	< 4 µM	< 4 µM	–
COC[C@H](c1cnn2cc([C@@H](NC(=O)c3nonc3C)C3CCC(F)(F)CC3)nc2c1)N1C[C@@H](C2(C#N)CC2)NC1=O [Example 25, N—((S)-(7-((S)-1-((R)-4-(1-Cyanocyclopropyl)-2-oxoimidazolidin-1-yl)-2-methoxyethyl)imidazo[1,2-b]pyridazin-2-yl)(4,4-difluorocyclohexyl)methyl)-4-methyl-1,2,5-oxadiazole-3-carboxamide]	< 4 µM	< 4 µM	–
COCCC(c1cnn2cc([C@@H](NC(=O)c3nonc3C)C3CCC(F)(F)CC3)nc2c1)N1C[C@@H](C(F)(F)F)NC1=O (single isomer, unassigned) [Example 40, N—((S)—(4,4-Difluorocyclohexyl)(7-((R*)-3-methoxy-1-((S)-2-oxo-4-(trifluoromethyl)imidazolidin-1-yl)propyl)imidazo[1,2-b]pyridazin-2-yl)methyl)-4-methyl-1,2,5-oxadiazole-3-carboxamide]	< 4 µM	< 4 µM	–
COC[C@H](c1cnn2cc([C@@H](NC(=O)c3nonc3C)[C@@H](C)O[C@H](C)C(F)(F)F)nc2c1)N1C[C@@H](C(F)(F)F)NC1=O [Example 27, N-((1R,2R)-1-(7-((S)-2-Methoxy-1-((S)-2-oxo-4-(trifluoromethyl)imidazolidin-1-yl)ethyl)imidazo[1,2-b]pyridazin-2-yl)-2-(((R)-1,1,1-trifluoropropan-2-yl)oxy)propyl)-4-methyl-1,2,5-oxadiazole-3-carboxamide]	< 4 µM	< 4 µM	–
Cc1nonc1C(=O)N[C@@H](CC(C)(C)C(F)(F)F)c1cn2ncc([C@@H](COC3CC3)N3C[C@@H](C(F)(F)F)NC3=O)cc2n1 [Example 37]	< 4 µM	< 4 µM	–
CC(C)n1nccc1C(=O)N[C@H](c1cn2ncc([C@@H](COC3CC3)N3C[C@@H](C(F)(F)F)NC3=O)cc2n1)C1CCC(F)(F)CC1 (single isomer, unassigned) [Example 43]	< 4 µM	< 4 µM	–
Cc1nonc1C(=O)N[C@@H](COC(C)(C)C(F)(F)F)c1cn2ncc([C@@H](COC3CC3)N3C[C@@H](C(F)(F)F)NC3=O)cc2n1 [Example 45]	< 4 µM	< 4 µM	–
Cc1nonc1C(=O)N[C@@H](CCC(C)(C)C(F)(F)F)c1cn2ncc(CN3C[C@](C)(C(F)(F)F)NC3=O)cc2n1 [Example 49, 4-Methyl-N—((S)-5,5,5-trifluoro-4,4-dimethyl-1-(7-(((R)-4-methyl-2-oxo-4-(trifluoromethyl)imidazolidin-1-yl)methyl)imidazo[1,2-b]pyridazin-2-yl)pentyl)-1,2,5-oxadiazole-3-carboxamide]	< 4 µM	< 4 µM	–
COC[C@H](c1cnn2cc([C@H](CCC(C)(C)C(F)(F)F)NC(=O)c3nonc3OC)nc2c1)N1C[C@@](C)(C(F)(F)F)NC1=O [Example 47, 4-Methoxy-N—((S)-5,5,5-trifluoro-1-(7-((S)-2-methoxy-((S)-4-methyl-2-oxo-4-(trifluoromethyl)imidazolidin-1-yl)ethyl)imidazo[1,2-b]pyridazin-2-yl)-4,4-dimethylpentyl)-1,2,5-oxadiazole-3-carboxamide]	< 4 µM	< 4 µM	–
O=C(N[C@H](c1cn2ncc(CN3C(=O)N[C@@H]4CC(F)(F)C[C@@H]43)cc2n1)C1CCC(F)(F)CC1)c1nonc1C1CC1 (single isomer, unassigned) [Example 7, 4-Cyclopropyl-N—((S)-(7-(((3aR*,6aS*)-5,5-difluoro-2-oxohexahydrocyclopenta[d]imidazol-1(2H)-yl)methyl)imidazo[1,2-b]pyridazin-2-yl)(4,4-difluorocyclohexyl)methyl)-1,2,5-oxadiazole-3-carboxamide]	< 4 µM	< 4 µM	< 4 µM
